# Laboratory results: patent US9113625B2, “Adjuvant for agricultural chemicals” (CJB Industries, Inc., priority 2009, dated 2015)
# Columns and labels:
# Format in all cases: in vivo
# [1] = system: Early Blight (Alternaria solani); assay: Evaluation of fungicide in the treatment of Early Blight on tomatoes; conditions: inoculated tomato plants; Chlorothalonil 2.5 pt/ac, no adjuvant; rated after one week
# Protocol: This example evaluated the effectiveness of the fungicide chlorothalonil for the control of Early Blight on tomatoes. The fungicide was mixed with water in a spray tank at the listed rate treatment (A), or with a permeabilizer (B) and the degree of control of the Early Blight was evaluated. The tomato plants were inoculated with the fungi. The ratings were made after one week on the per cent leaves infected with Alternaria and also the number with severe damage—necrosis.
# [2] = system: Bacterial Leaf Spot (Xanthomonas campestris); assay: Effectiveness of a bactericide on bacterial leaf spot on tomatoes; conditions: inoculated tomato plants; Copper 2#/acre, no adjuvant; rated after two weeks
# Protocol: This example evaluated the effectiveness of the bactericide copper hydroxide for the control of bacterial leaf spot on tomatoes. The tomato plants were inoculated with the bacteria. The bactericide was mixed with water in a spray tank at the listed rate treatment (A), or with a permeabilizer (B) and the degree of control of the leaf spot was evaluated. The ratings were made after two weeks on the per cent leaves infected.
# [3] = system: fireblight on Southern Crepe Myrtle; assay: Effectiveness of bactericide streptomycin at controlling fireblight; conditions: infected plants sprayed until wet; rated after two days; adjuvant (B) at 500:1 dilution
# Protocol: This example evaluated the effectiveness of the bactericide streptomycin for the control of fireblight on Southern Crepe Myrtle. The bactericide was mixed with water in a spray tank at the listed rate treatment (A), or with a permeabilizer (B). The infected plants were treated with the bactericide by spraying until wet and the degree of control of the fireblight was evaluated. The ratings were made after two days on the rate required for control.
smiles,measurement,setting,value
"N#Cc1c(Cl)c(Cl)c(Cl)c(C#N)c1Cl [Chlorothalonil, chlorothalonil]",Infected Leaflets,[1],60%
same,Infected Leaves,[1],42%
same,Leaves with >50% Necrosis,[1],42%
"[Cu+2].[OH-].[OH-] [Copper, copper hydroxide]",% Leaves Infected,[2],63%
"[H]/N=C(/N)N[C@H]1[C@H](O)[C@@H](O)[C@H](O[C@@H]2O[C@@H](C)[C@](O)(C=O)[C@H]2O[C@@H]2O[C@@H](CO)[C@H](O)[C@@H](O)[C@@H]2NC)[C@@H](N/C(N)=N\[H])[C@@H]1O [Streptomycin, streptomycin]",Level of Control (rate required for control),[3],60 ppm
